Test system: expert panelists (oral evaluation)
Assay: Sensory evaluation: oral evaluation of an aqueous solution by expert panelists
Type: in vivo, human
Settings: 20 ppm, 7 expert panelists, all seven gave this evaluation
Description: Oral evaluation of an aqueous solution of 2-(2-l-menthyloxyethyl)ethanol obtained in Example 1 in a concentration of 20 ppm was carried out by 7 expert panelists having 5 years or longer experience.

**Q.** Which “cool and refreshing feeling quality (oral evaluation)” value does the source give for `CC(C)[C@@H]1CC[C@@H](C)C[C@H]1OCCOCCO` [2-(2-l-menthyloxyethyl)ethanol] here?
**A.** excellent cool and refreshing feeling quality

— patent publication US7923585B2, “Menthol derivative and cooling agent composition comprising the same” (Takasago International Corporation, priority 2004, dated 2011)
